The values below come from article PMC4048319, “Design and Synthesis of High Affinity Inhibitors of Plasmodium falciparum and Plasmodium vivax N-Myristoyltransferases Directed by Ligand Efficiency Dependent Lipophilicity (LELP)” (Journal of Medicinal Chemistry, 2014).

As a reminder, the Ki is the equilibrium dissociation constant of an inhibitor or competing ligand from its target. Usually EC50 stands for the concentration needed to bring the measured effect to its halfway point. As usually defined, the aqueous solubility is the concentration that dissolves in the medium under given conditions.

The target of data set [1] is T1, PfNMT (Plasmodium falciparum, UniProt Q9U419).
T1 sequence (Q9U419 1-410): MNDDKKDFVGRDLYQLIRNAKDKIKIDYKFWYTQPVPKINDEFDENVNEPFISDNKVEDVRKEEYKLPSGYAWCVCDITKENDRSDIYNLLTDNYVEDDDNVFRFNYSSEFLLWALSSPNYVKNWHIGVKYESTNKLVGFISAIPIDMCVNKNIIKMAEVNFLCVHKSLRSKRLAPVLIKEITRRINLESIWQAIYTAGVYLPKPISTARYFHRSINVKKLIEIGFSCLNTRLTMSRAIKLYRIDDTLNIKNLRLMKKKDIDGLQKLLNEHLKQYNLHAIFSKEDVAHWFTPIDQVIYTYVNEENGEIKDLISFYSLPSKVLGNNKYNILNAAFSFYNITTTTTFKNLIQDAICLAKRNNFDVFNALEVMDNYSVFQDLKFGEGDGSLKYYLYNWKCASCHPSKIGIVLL
In words: LELP (cLogP/LE, PfNMT LE).

Data set [2] has as its target T1, PfNMT. In words: NMT enzyme inhibition, CPM fluorescence assay (PfNMT). Particulars: for Ki: Ki calculated from IC50 by Cheng-Prusoff, mean of two or more determinations, read-out: PfNMT Ki. The data set is classed as biochemical. The protocol:
(§1) All IC50 determinations were carried out using a 7-diethylamino-3-(4′-maleimidylphenyl)-4-methylcoumarin (CPM) fluorescence assay, as described previously for HsNMT1,[45] PvNMT,[46] and PfNMT.[21]
(§2) IC50 values are the mean value of two or more determinations, and standard deviation is within 20% of the IC50 unless otherwise specified. Data were elaborated using Microsoft Office Excel 2010, and IC50 values were determined using GraFit 7.0 (Erithacus Software Ltd., U.K.) by nonlinear regression fitting, which were then quoted as Ki as defined below.
(§3) The Michaelis constant (Km) was 3.64 μM and the substrate concentration was 4.00 μM, resulting in a Ki of 0.008 μM. Km values were calculated as described previously.[45]

The next data set relates to HepG2 cells. In words: in vitro. The data set is classed as cell-based.
The nature of data set [3]: cLogP determined with ChemAxon.
The test system of a further data set is rodent malaria model. More on the design: method as in PMID 24451586. Particulars: previously shown; cited from earlier work.
A further data set addresses PbNMT (Plasmodium berghei, UniProt A0A509ARF4). In words: PbNMT enzyme affinity. In kind it is biochemical. The protocol: In addition, 34c was tested against a Plasmodium berghei (Pb) liver stage model to determine whether NMT is likely to be a viable drug target for clearance of liver stage parasites. […] This provides evidence that NMT inhibition is also a promising mechanism for targeting liver stage parasites and may therefore be an effective pathway for the disruption of multiple parasite life stages.

Another data set is described as follows: in vitro. The data set is classed as cell-based. Particulars: human.
In the next data set the target is T2, HsNMT1 (Homo sapiens, UniProt P30419).
T2 sequence (P30419 1-496): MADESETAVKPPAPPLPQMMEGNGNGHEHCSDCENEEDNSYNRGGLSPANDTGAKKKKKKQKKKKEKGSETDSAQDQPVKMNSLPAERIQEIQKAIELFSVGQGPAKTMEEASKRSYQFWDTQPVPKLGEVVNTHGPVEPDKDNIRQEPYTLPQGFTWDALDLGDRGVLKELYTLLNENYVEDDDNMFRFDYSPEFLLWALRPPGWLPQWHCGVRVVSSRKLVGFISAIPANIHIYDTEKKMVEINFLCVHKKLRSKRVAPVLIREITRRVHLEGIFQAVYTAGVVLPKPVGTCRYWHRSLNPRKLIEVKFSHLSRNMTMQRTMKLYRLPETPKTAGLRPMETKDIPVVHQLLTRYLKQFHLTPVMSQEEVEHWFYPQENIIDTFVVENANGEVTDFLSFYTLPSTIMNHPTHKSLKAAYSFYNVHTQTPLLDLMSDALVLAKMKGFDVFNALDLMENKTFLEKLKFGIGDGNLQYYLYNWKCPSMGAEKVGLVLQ
In words: NMT enzyme inhibition, CPM fluorescence assay (HsNMT1). The data set is classed as biochemical. The note with it: ratio of Ki. The method, then: as §1, §2, §3

For a further data set, the system named is P. falciparum Dd2. In words: Plasmodium falciparum [3H]hypoxanthine incorporation assay (Dd2). The note with it: drug-resistant vs drug-sensitive line. In kind it is cell-based. The method, then: This assay was performed by Dr. Sergio Wittlin and Dr. Christian Scheurer at the Swiss Tropical and Public Health Institute and is a modified version of the original hypoxanthine assay published by Desjardins et al.:[47]
Serial drug dilutions were prepared with a multichannel pipet, transferring 100 μL in a 2-fold serial dilution. Wells of rows A served as controls without drug. An amount of 100 μL of infected blood (parasitemia of 0.3%, 2.5% hematocrit) was added to all wells with a multipipette. The control wells (A9–A12) received uninfected blood of 2.5% hematocrit. The plates were incubated in an incubation chamber at 37 °C in an atmosphere containing 93% N2, 4% CO2, 3% O2. After 48 h, an amount of 50 μL of [^3H]hypoxanthine (=0.5 μCi) solution was added to each well of the plate. The plates were incubated for another 24 h. The plates were then harvested with a Betaplate cell harvester (Wallac, Zurich, Switzerland). The dried filters were inserted into a plastic foil with 10 mL of scintillation fluid and counted in a Betaplate liquid scintillation counter (Wallac, Zurich, Switzerland). The results were recorded as counts per minute (cpm) per well at each drug concentration.
Data were analyzed using a graphic program (e.g., Excel) and expressed as percentage of the untreated controls. The 50% inhibitory concentration (IC50) value was evaluated by logit regression analysis.

On the set-up of data set [4]: method as in PMID 24451586. Particulars: previously reported; cited from earlier work.
The next data set is described as follows: Aqueous solubility. The data set is classed as physicochemical. Particulars: data not shown.
For the next data set, the target named is T3, PvNMT (Plasmodium vivax, UniProt A5K1A2).
T3 sequence (A5K1A2 1-410): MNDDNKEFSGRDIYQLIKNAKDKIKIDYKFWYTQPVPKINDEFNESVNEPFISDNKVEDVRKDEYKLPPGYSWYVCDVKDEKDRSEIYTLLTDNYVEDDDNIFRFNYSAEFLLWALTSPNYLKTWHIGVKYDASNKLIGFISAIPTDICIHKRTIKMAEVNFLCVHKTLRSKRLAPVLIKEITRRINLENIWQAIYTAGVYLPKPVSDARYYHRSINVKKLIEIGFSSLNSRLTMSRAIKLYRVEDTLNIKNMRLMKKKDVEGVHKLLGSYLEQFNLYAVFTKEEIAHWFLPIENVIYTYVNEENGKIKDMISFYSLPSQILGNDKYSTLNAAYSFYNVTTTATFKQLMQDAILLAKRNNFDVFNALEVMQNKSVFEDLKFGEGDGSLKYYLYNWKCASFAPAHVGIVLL
In words: NMT enzyme inhibition, CPM fluorescence assay (PvNMT). The note with it: relative to 34c. The data set is classed as biochemical. The protocol: as §1, §2, §3

A value given as a limit tells only on which side of the number the result lay.

Chain of PbNMT (A0A509ARF4 entry or part of it): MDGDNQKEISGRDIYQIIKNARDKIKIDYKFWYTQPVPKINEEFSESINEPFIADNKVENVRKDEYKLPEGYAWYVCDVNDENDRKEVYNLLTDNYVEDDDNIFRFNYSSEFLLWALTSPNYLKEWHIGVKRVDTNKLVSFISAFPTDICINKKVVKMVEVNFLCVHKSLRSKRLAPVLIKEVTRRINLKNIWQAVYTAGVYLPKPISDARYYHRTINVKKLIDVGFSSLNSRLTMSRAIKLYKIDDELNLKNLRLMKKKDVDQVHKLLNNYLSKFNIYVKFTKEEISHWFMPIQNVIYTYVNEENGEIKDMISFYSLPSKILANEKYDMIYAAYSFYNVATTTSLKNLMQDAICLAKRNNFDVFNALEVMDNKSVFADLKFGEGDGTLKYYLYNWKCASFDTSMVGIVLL

On to `O=C(OCCCc1ccccc1)c1sc2ccccc2c1OC1CCNCC1` [4d], for which the LELP at PfNMT [1] worked out at 18.6.
The compound `COc1cccc(Cc2nc(-c3sc4ccccc4c3OC3CCNCC3)no2)c1` [14b, 5-(3-Methoxybenzyl)-3-(3-(piperidin-4-yloxy)benzo[b]thiophen-2-yl)-1,2,4-oxadiazole] had an LELP at PfNMT [1] of 12.4.
For the compound `c1ccc(Cc2noc(-c3sc4ccccc4c3OC3CCNCC3)n2)cc1` [9a, 3-Benzyl-5-(3-(piperidin-4-yloxy)benzo[b]thiophen-2-yl)-1,2,4-oxadiazole], on PfNMT [1], the LELP was determined as 12.4.
Still for that read-out and setting: the same measure for `CC(C)(c1ccccc1)c1nnc(-c2sc3ccccc3c2OC2CCNCC2)o1` [23b]: 14.1.
Regarding `O=C(NCCCc1ccccc1)c1sc2ccccc2c1OC1CCNCC1` [6b], the Ki at PfNMT [2] is more than 10 µM.
`OC(c1ccccc1)c1nnc(-c2sc3ccccc3c2OC2CCNCC2)o1` (stereo not drawn) [23g] came in with an LELP at PfNMT [1] of 7.9.
Same read-out and setting: with `COc1cc(CCOC(=O)c2sc3ccccc3c2OC2CCNCC2)cc(OC)c1` [4c] the figure was 12.4.
For the compound `O=C(NCCc1ccccc1)c1sc2ccccc2c1OC1CCNCC1` [6a], at PfNMT [2], the Ki was more than 10 µM.
As to `Cc1nn(C)c(C)c1CCc1nnc(-c2sc3ccccc3c2OC2CCNCC2)o1` [35c], the LELP at PfNMT [1] amounted to 8.2.
The same measure, in the same setting: the same measure for `c1ccc(Cc2n[nH]c(-c3sc4ccccc4c3OC3CCNCC3)n2)cc1` [compound 18]: 9.5; for `c1ccc(C(c2ccccc2)c2nnc(-c3sc4ccccc4c3OC3CCNCC3)o2)cc1` [23e]: 19.4; for `COc1cccc(Cc2nnc(-c3sc4ccccc4c3OC3CCNCC3)o2)c1` [20b]: 9.2.
Still for that read-out and setting: with `Cc1n[nH]c(C)c1CCc1nnc(-c2sc3ccccc3c2OC2CCNCC2)o1` [35a] the figure was 7.8.
The same measure, in the same setting: the same measure for `FC(F)(c1ccccc1)c1nnc(-c2sc3ccccc3c2OC2CCNCC2)o1` [23d]: 13.8; for `Clc1cccc(Cc2noc(-c3sc4ccccc4c3OC3CCNCC3)n2)c1` [9d]: 15.3; for `COc1cc(Cc2nc(-c3sc4ccccc4c3OC3CCNCC3)no2)cc(OC)c1` [14c]: 11.8.
For the compound `O=C(NCCOc1ccccc1)c1sc2ccccc2c1OC1CCNCC1` [6c], at PfNMT [2], the Ki was more than 10 µM.
`COc1cccc(Cc2noc(-c3sc4ccccc4c3OC3CCNCC3)n2)c1` [9c] had an LELP at PfNMT [1] of 12.5.
As to `COc1cccc(CCOC(=O)c2sc3ccccc3c2OC2CCNCC2)c1` [4b, 3-Methoxyphenethyl 3-(Piperidin-4-yloxy)benzo[b]thiophene-2-carboxylate], the LELP at PfNMT [1] is reported as 13.2. Besides, the “improvement in enzyme affinity (PfNMT) relative to 1” value at PfNMT [2] was determined as 6 fold.
For the compound `O=C1C(O)=C([C@H]2CC[C@H](c3ccc(Cl)cc3)CC2)C(=O)c2ccccc21` [compound 37, atovaquone, reference compound], in the data set with HepG2 cells (human, 72 h), the “HepG2 LD50” value is reported as >10 000 nM.
At PfNMT [1], `O=C(OCCc1ccccc1)c1sc2ccccc2c1OC1CCNCC1` [4a] displayed an LELP of 14.3.
`Cc1nn(C)c(C)c1Cc1nnc(-c2sc3ccccc3c2OC2CCNCC2)o1` [34c, 2-(3-(Piperidin-4-yloxy)benzo[b]thiophen-2-yl)-5-((1,3,5-trimethyl-1H-pyrazol-4-yl)methyl)-1,3,4-oxadiazole]: in [3], the “reduction in lipophilicity relative to 1” value came to 100 fold. In addition, the parasitemia in vivo entry in the data set on rodent malaria model is “reduce parasitemia in vivo”. Moreover, on PbNMT, the affinity, expressed as Ki, was 0.014 µM. Also, in the data set on HepG2 cells (human, 72 h), the “HepG2 LD50” value is on record as 12 300 nM and the “HepG2 LD50 (approximate)” value was approximately 10 µM. For the same compound, in the data set on HepG2 cells (up to), the “selectivity between parasitic and HepG2 cell lines” value is approximately 40 fold. The same compound gave a concentration for a half-maximal effect (EC50) at 72 h in the data set “in vitro” of 12.3 µM. On PfNMT [1], this compound gave an LELP of 5.5. For the same compound, the “selectivity between PfNMT and HsNMT” value at HsNMT1 was 8- to 9 fold. Moreover, in the data set with P. falciparum Dd2, the “loss of potency between NF54 and Dd2” value was “less than 4 fold”. Further, the aqueous solubility in [4] was more than 8 mM. Besides, the “improvement in enzyme affinity (PfNMT) relative to 1” value at PfNMT [2] worked out at 100 fold.
Consider `O=C(OCCOc1ccccc1)c1sc2ccccc2c1OC1CCNCC1` [4e], for which, on PfNMT [1], the LELP amounted to 14.1.
Regarding `COc1cc(Cc2noc(-c3sc4ccccc4c3OC3CCNCC3)n2)cc(OC)c1` [9e], the LELP at PfNMT [1] was determined as 11.8. Moreover, the solubility entry in the data set “Aqueous solubility” is listed as “very low”.
On PfNMT [1], `CC(c1ccccc1)c1nnc(-c2sc3ccccc3c2OC2CCNCC2)o1` (stereo not drawn) [23a, 2-(1-Phenylethyl)-5-(3-(piperidin-4-yloxy)benzo[b]thiophen-2-yl)-1,3,4-oxadiazole] came in with an LELP of 12.5.
On to `Cc1noc(C)c1CCc1nnc(-c2sc3ccccc3c2OC2CCNCC2)o1` [35b], for which the LELP at PfNMT [1] turned out to be 7.9.
`c1ccc(C2(c3nnc(-c4sc5ccccc5c4OC4CCNCC4)o3)CC2)cc1` [23c]: at PfNMT [1], the LELP worked out at 12.2.
`c1ccc(Cc2nc(-c3sc4ccccc4c3OC3CCNCC3)no2)cc1` [14a]: the LELP at PfNMT [1] came to 12.8.
On the same count and under the same terms, the same measure for `c1ccc(Cc2nnc(-c3sc4ccccc4c3OC3CCNCC3)o2)cc1` [20a]: 9.5.
With `Cc1n[nH]c(C)c1Cc1nnc(-c2sc3ccccc3c2OC2CCNCC2)o1` [34a], the “lower binding affinity to PvNMT than 34c” value on PvNMT was approximately 40 fold. This compound also yielded an LELP at PfNMT [1] of 5.6.
As for `c1ccc(CCc2noc(-c3sc4ccccc4c3OC3CCNCC3)n2)cc1` [9b, 3-Phenethyl-5-(3-(piperidin-4-yloxy)benzo[b]thiophen-2-yl)-1,2,4-oxadiazole], the LELP at PfNMT [1] was determined as 15.2.
On the same count and under the same terms, the same measure for `COC(c1ccccc1)c1nnc(-c2sc3ccccc3c2OC2CCNCC2)o1` (stereo not drawn) [23f]: 10.5.
Compound `Cc1noc(C)c1Cc1nnc(-c2sc3ccccc3c2OC2CCNCC2)o1` [34b] came in with an LELP on PfNMT [1] of 6.1. In addition, the “selectivity between PfNMT and HsNMT” value on HsNMT1 is recorded as 8- to 9 fold.
